This note sets out measurements from patent US10100058B2, “Fused heterocyclic compounds as CaM kinase inhibitors” (Gilead Sciences, Inc., priority 2016, dated 2018).

The test deals with recombinant CaMKIIδ (Homo sapiens (Human), UniProt Q13557). Briefly: CaMKIIδ biochemical assay (HTRF). Conditions: 10 pM CaMKIIδ, 110 nM calmodulin, 12 μM ATP, 1 hour; read-out: CAMKIID-HTRF-384V2 (IC50 - nM). On the procedure:
CaMKIIδ Biochemical Assay
The biochemical activity of recombinant CaMKIIδ was measured by monitoring the phosphorylation of a target peptide using Homogenous Time Resolved Fluorescence (HTRF) technology from CisBio Bioassays.
In general terms: In TR-FRET formats the signal depends on donor and acceptor labels being close together.
Usually IC50 stands for the concentration that gives 50% inhibition. Regarding `Nc1cc(C(=O)N2C3CCNCC2CC3)cc(-c2cnn3ccc(-c4ccccc4)nc23)n1` (stereo not shown) [Example 128, (2-amino-6-(5-phenylpyrazolo[1,5-a]pyrimidin-3-yl)pyridin-4-yl)(-3,9-diazabicyclo[4.2.1]nonan-9-yl)methanone], the concentration for half-maximal inhibition (IC50) amounted to 27.8 nM.
The same measure for `Nc1cc(C(=O)N2C3CCNCC2CC3)cc(-c2cnn3ccc(-c4cccs4)nc23)n1` (stereo not shown) [Example 129, (2-amino-6-(5-(thiophen-2-yl)pyrazolo[1,5-a]pyrimidin-3-yl)pyridin-4-yl)(-3,9-diazabicyclo[4.2.1]nonan-9-yl)methanone]: 1.55 nM; for `CC(C)(C)c1cc(C(=O)N2CCCC[C@@H]2CN)cc(-c2cnn3ccc(-c4ccccc4)nc23)n1` [Example 130, (R)-(2-(aminomethyl)piperidin-1-yl)(2-(tert-butyl)-6-(5-phenylpyrazolo[1,5-a]pyrimidin-3-yl)pyridin-4-yl)methanone]: 266 nM.
The same measure for `Cc1cc(C(=O)N2CCC[C@@H]2CN)cc(-c2cnn3ccc(-c4ccccc4)nc23)n1` [Example 131, (R)-(2-(aminomethyl)pyrrolidin-1-yl)(2-methyl-6-(5-phenylpyrazolo[1,5-a]pyrimidin-3-yl)pyridin-4-yl)methanone]: 56.1 nM; for `COc1cc(C(=O)N2CCCC[C@@H]2CN)cc(-c2cnn3ccc(-c4ccccc4)nc23)n1` [Example 132, (R)-(2-(aminomethyl)piperidin-1-yl)(2-methoxy-6-(5-phenylpyrazolo[1,5-a]pyrimidin-3-yl)pyridin-4-yl)methanone]: 32.7 nM.
The same measure for `NC[C@@H]1CCCCN1C(=O)c1cc(Cl)nc(-c2cnn3ccc(-c4ccccc4)nc23)c1` [Example 133, (S)-(2-(aminomethyl)piperidin-1-yl)(2-chloro-6-(5-phenylpyrazolo[1,5-a]pyrimidin-3-yl)pyridin-4-yl)methanone]: 163 nM; for `COc1cc(C(=O)N2CCCC[C@H]2CN)cc(-c2cnn3ccc(-c4ccccc4)nc23)n1` [Example 134, (S)-(2-(aminomethyl)piperidin-1-yl)(2-methoxy-6-(5-phenylpyrazolo[1,5-a]pyrimidin-3-yl)pyridin-4-yl)methanone]: 303 nM; for `CN(C)c1cc(C(=O)N2CCCC[C@H]2CN)cc(-c2cnn3ccc(-c4ccccc4)nc23)n1` [Example 135, (S)-(2-(aminomethyl)piperidin-1-yl)(2-(dimethylamino)-6-(5-phenylpyrazolo[1,5-a]pyrimidin-3-yl)pyridin-4-yl)methanone]: 761 nM.
On to `Cc1cnc(-c2cnn3ccc(-c4ccccc4)nc23)cc1C(=O)N1CCCC[C@@H]1CN` [Example 136, (R)-(2-(aminomethyl)piperidin-1-yl)(5-methyl-2-(5-phenylpyrazolo[1,5-a]pyrimidin-3-yl)pyridin-4-yl)methanone], for which the IC50 is 0.84 nM.
As to `NC[C@H]1CCCCN1C(=O)c1cc(-c2cnn3ccc(-c4ccccc4)nc23)ncc1Cl` [Example 137, (R)-(2-(aminomethyl)piperidin-1-yl)(5-chloro-2-(5-phenylpyrazolo[1,5-a]pyrimidin-3-yl)pyridin-4-yl)methanone], the concentration for half-maximal inhibition (IC50) came to 1.82 nM.
The same measure for `NC[C@H]1CCCCN1C(=O)c1cc(-c2cnn3ccc(-c4ccccc4)nc23)ncc1N` [Example 138, (R)-(5-amino-2-(5-phenylpyrazolo[1,5-a]pyrimidin-3-yl)pyridin-4-yl)(2-(aminomethyl)piperidin-1-yl)methanone]: 0.4 nM.
On to `CNc1cnc(-c2cnn3ccc(-c4ccccc4)nc23)cc1C(=O)N1CCCC[C@@H]1CN` [Example 139, (R)-(2-(aminomethyl)piperidin-1-yl)(5-(methylamino)-2-(5-phenylpyrazolo[1,5-a]pyrimidin-3-yl)pyridin-4-yl)methanone], for which the half-inhibitory concentration (IC50) turned out to be 0.87 nM.
The same measure for `Cc1cnc(-c2cnn3ccc(-c4ccccc4)nc23)cc1C(=O)N1CCCC[C@@H]1[C@@H](C)N` [Example 140, ((R)-2-((R)-1-aminoethyl)piperidin-1-yl)(5-methyl-2-(5-phenylpyrazolo[1,5-a]pyrimidin-3-yl)pyridin-4-yl)methanone]: 1.91 nM.
